The source made the active and inactive calls. How the calls were made is not given here.
Experiment: reduced viability of parasite-Hsp90 expressing yeast – ATP luminescence, 48 h, cherry-picked samples, anti-malarial Hsp90 inhibitor project, dose response (AID 540268);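 on activity change, negative = inhibition: 0% = neutral control wells and -100% = positive control wells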
Conditions: yeast expressing the parasite Hsp90, ATP luminescence; for activity change, negative = inhibition: at 26 µM (top of the series)

Which AC50 does the source give for `COc1ccc(-c2cc(C(=O)N3CCN(c4ccccc4F)CC3)c3ccccc3n2)c(OC)c1` here?
Its AC50 is 4.09 µM.

For `O=C(/C=C/c1cccc([N+](=O)[O-])c1)c1cccs1`, which AC50 is on record?
The AC50 was 2.63 µM.

For `CCOC(=O)c1cc([N+](=O)[O-])c([N+](=O)[O-])cc1NC(C)=O`, which AC50 is on record?
Its AC50 is 2.08 µM.

Which AC50 does the source give for `CCCCCCOC(=O)Sc1nc2ccccc2o1` here?
Its AC50 is 1.57 µM.

For `Cc1ccccc1CS(=O)(=O)c1nnc([C@H](Cc2ccccc2)NC(=O)OC(C)(C)C)o1`, which AC50 is on record?
The AC50 was 17.1 µM.

For `C=CCn1c(C)cc(C(=O)CSc2nnc(NCc3ccccc3)s2)c1C`, which AC50 is on record?
The AC50 was 4.2 µM.

Which AC50 does the source give for `CC(C)CC(=O)/C(=C\c1ccc(Cl)cc1Cl)n1cncn1` here?
The AC50 was 1.75 µM.

For `CC(=NNC(=S)N1CC2CCC(CC2)C1)c1cnccn1`, which AC50 is on record?
The AC50 was < 0.195 µM.

For `O=C(CN1CCN(c2ncc(C(F)(F)F)cc2Cl)CC1)NCCNc1ncc(C(F)(F)F)cc1Cl`, which AC50 is on record?
The AC50 was 3.49 µM.

For `COc1ccc2oc(=O)c(-c3csc(Nc4cccc(O)c4)n3)cc2c1`, which AC50 is on record?
Its AC50 is 7.93 µM.

With `COc1ccc(O)c(-c2cc(-c3cccc(Br)c3)n[nH]2)c1` as the molecule, how does the AC50 read?
The AC50 was 7.23 µM.

For `CC[C@H](C)/C=C(C)/C=C/C1=CC2=C(Cl)C(=O)[C@](C)(OC(C)=O)C(=O)C2=CO1`, which AC50 is on record?
The AC50 was 2.11 µM.

With `Cc1ccc(S(=O)(=O)Nc2cc(Cl)c(O)c3ncccc23)cc1` as the molecule, how does the AC50 read?
The AC50 was 2.09 µM.

For `O=C1C=CC(=O)N1c1ccc2ccccc2c1`, which AC50 is on record?
Its AC50 is 0.568 µM.

With `O=C1C2C3C=CC(CNS(=O)(=O)c4ccccc4)(O3)C2C(=O)N1c1ccc(Cl)cc1` (stereo unspecified) as the molecule, how does the AC50 read?
Its AC50 is 3.73 µM.

With `COc1ccccc1C(=O)Nc1nc2ccccc2[nH]1` as the molecule, how does the AC50 read?
Its AC50 is 1.22 µM.

For `Oc1ccccc1-c1nc(NC2CCCC2)c2ccccc2n1`, which AC50 is on record?
The AC50 was 4.26 µM.

Which AC50 does the source give for `Oc1ccc(-c2nc3ccc4ccccc4c3c3c2CCC3)cc1O` here?
Its AC50 is 8.29 µM.

For `O=C(OCn1ncc(Cl)c(Cl)c1=O)c1cccc(C(F)(F)F)c1`, which AC50 is on record?
Its AC50 is 5.36 µM.

For `CCN(CC)c1ccc(C(=C2C=CC(=[N+](CC)CC)C=C2)c2ccccc2)cc1`, which AC50 is on record?
The AC50 was 1.09 µM.

For `O=C1CC(N2CCN(c3nc4ccccc4s3)CC2)C(=O)N1Cc1cccs1` (stereo unspecified), which AC50 is on record?
Its AC50 is 4.66 µM.

With `Cc1cc(C(C)(C)CC(C)(C)C)ccc1OCCOCC[N+](C)(C)Cc1ccccc1` as the molecule, how does the AC50 read?
The AC50 was 7.8 µM.

With `O=C1/C(=C\c2cccc(O)c2O)SC(=S)N1Cc1ccccc1` as the molecule, how does the AC50 read?
The AC50 was 9.6 µM.

For `Cn1ncc2c(Nc3cccc(Cl)c3)nc(Nc3cccc(Cl)c3)nc21`, which AC50 is on record?
The AC50 was 2.82 µM.

With `CC1CC(C)C(=NNC(N)=O)C(C(O)CC2CCC(=O)NC2=O)C1` (stereo unspecified) as the molecule, how does the AC50 read?
Its AC50 is < 0.195 µM.

With `O=C(Nc1nc(-c2ccccn2)cs1)c1cc2ccccc2o1` as the molecule, how does the AC50 read?
The AC50 was 4.24 µM.

Which AC50 does the source give for `COc1ccc2oc(/C=C/N(C)C)c(C(=O)c3ccc(Cl)cc3)c2c1` here?
Its AC50 is 3.78 µM.

With `Cc1cc2ccccn2c1C(=O)c1ccc([N+](=O)[O-])o1` as the molecule, how does the AC50 read?
Its AC50 is 2.33 µM.

For `Cc1[nH]n(-c2ccc([N+](=O)[O-])cc2)c(=O)c1C=NCCN1CCN(C(=O)c2cccc(F)c2)CC1`, which AC50 is on record?
The AC50 was 5.83 µM.

Which AC50 does the source give for `CCCCCCCC/C=C\CCCCCCCC(=O)NCCO` here?
The AC50 was 9.25 µM.

With `C/C(=N\Nc1nc2ccccc2s1)c1ccc(Br)s1` as the molecule, how does the AC50 read?
The AC50 was 4.47 µM.

With `CC(C)(C)C(O)C(Cc1ccccc1Cl)n1cncn1` (stereo unspecified) as the molecule, how does the AC50 read?
Its AC50 is < 0.195 µM.

Which AC50 does the source give for `Cc1c(C)c2cccnc2c2ncccc12` here?
Its AC50 is 4.22 µM.

For `COc1cccc(/C=N/Nc2ncc(C(F)(F)F)cc2Cl)c1O`, which AC50 is on record?
Its AC50 is 4.33 µM.

With `O=C(O)c1cn(-c2ccc(N3CCCC3)c(F)c2)c2c(F)c(F)c(F)cc2c1=O` as the molecule, how does the AC50 read?
Its AC50 is 4.36 µM.

With `COc1ccc(N(C(=O)c2ccncc2)S(=O)(=O)c2ccccc2)cc1` as the molecule, how does the AC50 read?
The AC50 was 1.66 µM.

Which AC50 does the source give for `CC(=O)NC(c1ccc2ccccc2c1)c1ccc2cccnc2c1O` (stereo unspecified) here?
The AC50 was 1.75 µM.

Which AC50 does the source give for `Cc1ccc(C(=O)c2no[n+]([O-])c2C(=O)c2ccc(C)cc2)cc1` here?
The AC50 was 2.03 µM.

For `COc1ccc(C(=O)Nc2cc(C(=O)c3ccccc3)c(C)oc2=O)cc1`, which activity change, negative = inhibition is on record?
The activity change, negative = inhibition was 36.8% (inactive).

For `O=C(c1ccc2c(=O)n(C3CCCC3)c(=S)[nH]c2c1)N1CCc2ccccc21`, which AC50 is on record?
The AC50 was 6.25 µM.

Which AC50 does the source give for `C[CH2][Hg][S]c1ccccc1C(=O)O` here?
Its AC50 is 4.9 µM.

For `Cc1cccc(C)c1N=Nc1c(C)cc(O)cc1C`, which AC50 is on record?
Its AC50 is 8.29 µM.

With `CC1=C(C(=O)OCc2ccccc2)C(/C=C/c2ccccc2)NC(=S)N1` (stereo unspecified) as the molecule, how does the AC50 read?
The AC50 was < 0.195 µM.

With `O=C(N/N=C/c1ccc([N+](=O)[O-])o1)c1sc2ccccc2c1Cl` as the molecule, how does the activity change, negative = inhibition read?
The activity change, negative = inhibition was 18.4% (inactive).

Which AC50 does the source give for `CCC(=O)OCOc1ccc(/C=C2/CCC(CN(C)C)C2=O)cc1` (stereo unspecified) here?
Its AC50 is 2.89 µM.

Which AC50 does the source give for `O=[N+]([O-])c1ccc(S(=O)Cc2ccccc2)c([N+](=O)[O-])c1` (stereo unspecified) here?
The AC50 was 2.55 µM.

For `COc1ccc(S(=O)(=O)NC2CC3CCC2C3)cc1Cl` (stereo unspecified), which AC50 is on record?
The AC50 was 1.56 µM.

Which AC50 does the source give for `CSc1nc2cc(Oc3cccc(Cl)c3Cl)c(Cl)cc2[nH]1` here?
The AC50 was 6.41 µM.

Which AC50 does the source give for `Cc1cccc(NC(=O)c2nc(S(=O)(=O)Cc3ccccc3)ncc2Cl)c1` here?
Its AC50 is 3.15 µM.

Which AC50 does the source give for `Cc1[nH]n(-c2ccccc2)c(=O)c1C(C[N+](=O)[O-])c1ccc(Br)cc1` (stereo unspecified) here?
The AC50 was 8.54 µM.

Which AC50 does the source give for `CCN1C/C(=C/c2cccc([N+](=O)[O-])c2)C(=O)/C(=C/c2cccc([N+](=O)[O-])c2)C1` here?
The AC50 was 3.22 µM.

For `CC(C)C(=O)NC(c1ccc(Cl)cc1Cl)c1ccc2cccnc2c1O` (stereo unspecified), which AC50 is on record?
Its AC50 is 15.3 µM.

With `CCOC(=O)c1ccc(N2C(=O)CC(N3CCC(O)(c4ccc(Cl)cc4)CC3)C2=O)cc1` (stereo unspecified) as the molecule, how does the AC50 read?
Its AC50 is 4.04 µM.

Which activity change, negative = inhibition does the source give for `N#C/C(=C/c1ccc(N2CCCCCC2)o1)c1ccc(Cl)cc1` here?
Its activity change, negative = inhibition is -50.5% (inactive).

With `O=C(Nc1nc(-c2ccccn2)cs1)c1ccc(-c2ccccc2F)o1` as the molecule, how does the AC50 read?
The AC50 was 8.88 µM.

Which AC50 does the source give for `CCN(CC)N=Nc1[nH]nc2nc(C)cc(C)c12` here?
The AC50 was 4.33 µM.

With `C=CC(C)(C)c1c(O)c(CC=C(C)C)c(O)c2c(=O)c3ccc(O)c(O)c3oc12` as the molecule, how does the AC50 read?
Its AC50 is 6.76 µM.

Which AC50 does the source give for `CCOC(=O)N=Nc1c2ccccc2c2nc3no[nH]c3nc12` here?
Its AC50 is 0.769 µM.

With `O=C1/C(=C\c2ccc(Cl)cc2)CCC1CNc1ccc(Cl)cc1` (stereo unspecified) as the molecule, how does the AC50 read?
The AC50 was < 0.195 µM.

Which AC50 does the source give for `CN(CC(=O)Nc1cccc(F)c1)C(=O)c1cn(-c2ccccc2)nc1-c1ccc(Cl)cc1` here?
The AC50 was 7.8 µM.

Which AC50 does the source give for `CCc1ccc(-c2cc(C(=O)N3N=C(C(F)F)CC3(O)C(F)F)c3ccccc3n2)cc1` (stereo unspecified) here?
Its AC50 is 3.24 µM.

Which AC50 does the source give for `Cc1cc([N+](=O)[O-])c2ccccc2[n+]1[O-]` here?
The AC50 was < 0.195 µM.

With `CCCCCCc1cc2cc(S(=O)(=O)c3ccc(Cl)cc3)c(=O)oc2cc1O` as the molecule, how does the AC50 read?
Its AC50 is 0.745 µM.

With `COc1ccccc1N=Nc1ccc(O)c2ncccc12` as the molecule, how does the AC50 read?
The AC50 was 4.31 µM.

With `COc1ccc(OC)c(NC(=O)c2nc(S(=O)(=O)Cc3ccccc3)ncc2Cl)c1` as the molecule, how does the AC50 read?
The AC50 was 4.3 µM.

Which AC50 does the source give for `COc1cc(C=NO)nc(-c2ccccn2)c1` here?
Its AC50 is 2.32 µM.

For `N#C/C(=C/c1ccc(O)cc1)C(=O)NCc1ccc(Cl)cc1`, which activity change, negative = inhibition is on record?
The activity change, negative = inhibition was 10.6% (inactive).

Which AC50 does the source give for `Oc1c(C(Nc2cccc(C(F)(F)F)c2)c2ccncc2)ccc2cccnc12` (stereo unspecified) here?
The AC50 was 5.15 µM.

For `COc1ccc(S(=O)(=O)NC2CC3CCC2C3)cc1Br` (stereo unspecified), which AC50 is on record?
Its AC50 is 3.52 µM.

With `CCOC(=O)c1sc(-c2ccc(C(F)(F)F)cc2)nc1O` as the molecule, how does the AC50 read?
Its AC50 is 2.59 µM.

With `COc1ccc(Nc2cnn(-c3nc4ccccc4s3)c(=O)c2Cl)cc1` as the molecule, how does the AC50 read?
Its AC50 is 3.21 µM.

With `CCOC(=O)/C(=C/c1ccc(OC(=O)c2ccccc2)cc1)C(C)=O` as the molecule, how does the AC50 read?
Its AC50 is 1.43 µM.

For `Cc1ccc(S(=O)(=O)NCC23C=CC(O2)C2C(=O)N(c4ccccc4)C(=O)C23)cc1` (stereo unspecified), which AC50 is on record?
Its AC50 is 4.8 µM.

Which AC50 does the source give for `CCCCNc1nc(N)nc(-c2cc(Cl)ccc2O)n1` here?
The AC50 was 4.58 µM.

With `Cc1cc(/C=C2\SC(=S)NC2=O)c(C)n1-c1ccc(O)cc1` as the molecule, how does the AC50 read?
Its AC50 is 4.65 µM.

For `Cc1ccc(NC(=O)c2cc(N3C(=O)C=CC3=O)ccc2Cl)cc1C`, which AC50 is on record?
Its AC50 is 0.92 µM.

Which AC50 does the source give for `O=C1C=CC(=O)N1c1ccc(N2CCCCC2)cc1` here?
The AC50 was 0.312 µM.

With `CCN1CCCC1CN(Cc1cc2ccc(C)cc2[nH]c1=O)C(=S)Nc1ccc(F)cc1` (stereo unspecified) as the molecule, how does the AC50 read?
Its AC50 is 3.2 µM.

For `COc1cc(N=Nc2ccc3ccccc3c2)ccc1O`, which AC50 is on record?
The AC50 was 8.61 µM.

Which AC50 does the source give for `Cc1sc2nc(C3CC3)nc(SCC(=O)NCc3ccco3)c2c1C` here?
The AC50 was 7.33 µM.

For `Cc1ccc(N=N/C(=C\O)C(=O)c2ccc(Cl)cc2)cc1`, which AC50 is on record?
Its AC50 is 8.29 µM.
